The record followed here is US6790968B1, “Substance FKI-0076 and process for producing the same” (The Kitasato Institute, priority 2002, dated 2004).

Holding throughout (assay type): cell-based
For assay [1], the system named is Saccharomyces cerevisiae KF26 (ATCC9763). The experiment in a line: MIC, microbroth dilution method. The settings on record: ATCC9763, 24 h. For orientation: In broth dilution the organism is exposed to a series of concentrations in liquid medium.
Assay [2] concerns Aspergillus niger KB103 (ATCC6275). The experiment in a line: MIC, microbroth dilution method. The settings on record: ATCC6275, 48 h.
Assay [3] deals with Xanthomonas campestris pv. oryzae KB88. The experiment in a line: microbe, parasite or virus in culture. The note with it: 24 h.
Assay [4] has as its system Escherichia coli KB176 (IF012734). The experiment in a line: MIC, microbroth dilution method. The settings on record: 24 h.
Assay [5] concerns Micrococcus luteus KB40 (ATCC9431). The experiment in a line: MIC, microbroth dilution method. The settings on record: ATCC9431, 24 h.
Assay [6] concerns Mucor racemosus KF223 (IF04581). The experiment in a line: MIC, microbroth dilution method. The note with it: 24 h.
In assay [7] the test system is Acholeplasma laidlawii KB174. The experiment in a line: MIC, microbroth dilution method. The settings on record: KB174, 24 h.
The test system of assay [8] is Staphylococcus aureus KB210 (ATCC6538P). The experiment in a line: MIC, microbroth dilution method. The note with it: 24 h.
Assay [9] relates to Bacillus subtilis KB27 (ATCC6633). The experiment in a line: MIC, microbroth dilution method. The note with it: ATCC6633, 24 h.
The test system of a further assay is Pyricularia oryzae KB180. The experiment in a line: microbe, parasite or virus in culture. The settings on record: KB180, 48 h.
For assay [10], the system named is Mycobacterium smegmatis KB42 (ATCC607). The experiment in a line: MIC, microbroth dilution method. The settings on record: Mycolicibacterium smegmatis, ATCC607, 24 h.
The subject of assay [11] is Candida albicans KF1. The experiment in a line: Enhanced activity of azole antifungal agent, paper disc method. The settings on record: 100 μg, 27° C., 24 hours. The procedure: (§1) Enhanced activity of azole antifungal agent is determined by the following method. Candida albicans KF1 and Saccharomyces cerevisiae KF26 (ATCC 9763) were used. Candida albicans KF1 was cultured in Waksman broth (glucose 2.0%, peptone 0.5%, meat extract 0.5%, and NaCl 0.5%, pH 7.0) and Saccharomyces cerevisiae KF26 was cultured in potato broth (glucose 1.0%, peptone 0.5% and potato extract 100 ml). Both strains were cultured at 27° C. for 40 hours. Subsequently, each strain was inoculated in GY agar medium (glucose 1.0%, yeast extract 0.5% and agar 0.8%, pH 6.0). […]. Miconazole (Sigma Chemicals, Inc.) was used as the azole antifungal agent. […] Activities were assessed using paper disc ([…]: 8 mm, ADVANTEC Inc.). After being cultured at 27° C. for 24 hours, the diameter of the inhibitory zone was measured for each organism.

Assay [12] relates to Saccharomyces cerevisiae KF26 (ATCC 9763). The assay is described as above. The settings on record: 100 μg, 27° C., 24 hours. The protocol: as §1
The test system of assay [13] is Candida albicans KF1. The experiment in a line: MIC, microbroth dilution method. The note with it: KF1, 24 h.
Assay [14] concerns Pseudomonas aeruginosa KB105 (IF03080). The experiment in a line: MIC, microbroth dilution method. The note with it: 24 h.
Where [15] appears, read: miconazole 0.1 μg/ml added to GY agar.
The mark [16] stands for this setting: without addition of miconazole, GY agar.

SMILES strings stand for the structures. Values after ≈ are worked out from the molar mass of the structure shown.

For `COC(=O)c1cc(OC)cc(OC)c1C(=O)c1coc(CC(C)OC(C)=O)cc1=O` (centres unmarked) [FKI-0076 substance], the MIC in [1], in assay [2], in assay [3], in assay [4], in [5] and in [6] was greater than 125 µg/mL throughout. Further, the MIC in assay [7] was 125 µg/mL (≈ 299 µM); in [8], greater than 125 µg/mL; in assay [9] it was greater than 125 µg/mL; against Pyricularia oryzae KB180, 125 µg/mL (≈ 299 µM); in assay [10] it was greater than 125 µg/mL; in the assay on Candida albicans KF1 [13], greater than 125 µg/mL. Further, in [14], the MIC is greater than 125 µg/mL. For the same molecule, the inhibition ring in the assay on Candida albicans KF1 [11] (setting [15]) is 15 mm; in [12] (setting [15]) it was 25 mm. Also, the inhibitory ring entry (with Candida albicans KF1 [11] (setting [16]); in assay [12] (setting [16])) was “did not show an inhibitory ring” in each case.
